Results from ChEMBL document CHEMBL5143704, “Discovery of 2,4-diarylaminopyrimidine derivatives bearing dithiocarbamate moiety as novel ALK inhibitors” (Bioorg Med Chem, 2022).

Legend:
[1] = tested on: NCI-H2228; test: Induction of apoptosis in human NCI-H2228 cells assessed as late apoptotic cells at 1.8 uM incubated for 48 hrs by annexinV-FITC/propidium iodide staining based flow cytometry analysis (reference value: 2.40%); assay type: functional
[2] = tested on: NCI-H2228; test: Induction of cell cycle arrest in human NCI-H2228 cells assessed as accumulation of cells at G2/M phase at 0.6 uM incubated for 48 hrs propidium iodide staining based flow cytometric analysis (reference value: 12.02%); assay type: functional
[3] = tested on: NCI-H2228; test: Induction of cell cycle arrest in human NCI-H2228 cells assessed as accumulation of cells at G1 phase at 0.6 uM incubated for 48 hrs propidium iodide staining based flow cytometric analysis (reference value: 59.82%); assay type: functional
[4] = tested on: NCI-H2228; test: Induction of apoptosis in human NCI-H2228 cells assessed as late apoptotic cells at 0.6 uM incubated for 48 hrs by annexinV-FITC/propidium iodide staining based flow cytometry analysis (reference value: 2.40%); assay type: functional
[5] = tested on: A549; test: cells; conditions: Homo sapiens, A549, 96 h
Description: Antiproliferative activity against ALK-negative human A549 cells assessed as inhibition of cell growth incubated for 96 hrs by MTT assay

[6] = tested on: NCI-H2228; test: Induction of apoptosis in human NCI-H2228 cells assessed as necrotic at 0.6 uM incubated for 48 hrs by annexinV-FITC/propidium iodide staining based flow cytometry analysis (reference value: 2.12%); assay type: functional
[7] = tested on: NCI-H2228; test: Induction of apoptosis in human NCI-H2228 cells assessed as necrotic at 0.2 uM incubated for 48 hrs by annexinV-FITC/propidium iodide staining based flow cytometry analysis (reference value: 2.12%); assay type: functional
[8] = tested on: NCI-H2228; test: Induction of apoptosis in human NCI-H2228 cells assessed as viable cells at 0.6 uM incubated for 48 hrs by annexinV-FITC/propidium iodide staining based flow cytometry analysis (reference value: 93.63%); assay type: functional; conditions: read-out: Activity
[9] = tested on: NCI-H2228; test: Induction of apoptosis in human NCI-H2228 cells assessed as viable cells at 0.2 uM incubated for 48 hrs by annexinV-FITC/propidium iodide staining based flow cytometry analysis (reference value: 93.63%); assay type: functional; conditions: read-out: Activity
[10] = tested on: NCI-H2228; test: Induction of apoptosis in human NCI-H2228 cells assessed as early apoptotic cells at 1.8 uM incubated for 48 hrs by annexinV-FITC/propidium iodide staining based flow cytometry analysis (reference value: 1.84%); assay type: functional
[11] = tested on: KARPAS-299; test: cells; conditions: Homo sapiens, KARPAS-299, 96 h
Description: Antiproliferative activity against NPM-ALK positive human KARPAS-299 cells assessed as inhibition of cell growth incubated for 96 hrs by CCK-8 assay

[12] = tested on: NCI-H2228; test: Induction of cell cycle arrest in human NCI-H2228 cells assessed as accumulation of cells at G1 phase at 0.2 uM incubated for 48 hrs propidium iodide staining based flow cytometric analysis (reference value: 59.82%); assay type: functional
[13] = tested on: NCI-H2228; test: Induction of apoptosis in human NCI-H2228 cells assessed as early apoptotic cells at 0.6 uM incubated for 48 hrs by annexinV-FITC/propidium iodide staining based flow cytometry analysis (reference value: 1.84%); assay type: functional
[14] = tested on: NCI-H2228; test: Induction of cell cycle arrest in human NCI-H2228 cells assessed as accumulation of cells at G2/M phase at 1.8 uM incubated for 48 hrs propidium iodide staining based flow cytometric analysis (reference value: 12.02%); assay type: functional
[15] = tested on: NCI-H2228; test: Induction of cell cycle arrest in human NCI-H2228 cells assessed as accumulation of cells at G2/M phase at 0.2 uM incubated for 48 hrs propidium iodide staining based flow cytometric analysis (reference value: 12.02%); assay type: functional
[16] = tested on: NCI-H2228; test: Induction of apoptosis in human NCI-H2228 cells assessed as late apoptotic cells at 0.2 uM incubated for 48 hrs by annexinV-FITC/propidium iodide staining based flow cytometry analysis (reference value: 2.40%); assay type: functional
[17] = tested on: NCI-H2228; test: Induction of apoptosis in human NCI-H2228 cells assessed as necrotic at 1.8 uM incubated for 48 hrs by annexinV-FITC/propidium iodide staining based flow cytometry analysis (reference value: 2.12%); assay type: functional
[18] = tested on: NCI-H2228; test: Induction of apoptosis in human NCI-H2228 cells assessed as early apoptotic cells at 0.2 uM incubated for 48 hrs by annexinV-FITC/propidium iodide staining based flow cytometry analysis (reference value: 1.84%); assay type: functional
[19] = tested on: NCI-H2228; test: Induction of cell cycle arrest in human NCI-H2228 cells assessed as accumulation of cells at S phase at 0.6 uM incubated for 48 hrs propidium iodide staining based flow cytometric analysis (reference value: 28.16%); assay type: functional
[20] = tested on: NCI-H2228; test: Induction of apoptosis in human NCI-H2228 cells assessed as viable cells at 1.8 uM incubated for 48 hrs by annexinV-FITC/propidium iodide staining based flow cytometry analysis (reference value: 93.63%); assay type: functional; conditions: read-out: Activity
[21] = tested on: NCI-H2228; test: Induction of cell cycle arrest in human NCI-H2228 cells assessed as accumulation of cells at G1 phase at 1.8 uM incubated for 48 hrs propidium iodide staining based flow cytometric analysis (reference value: 59.82%); assay type: functional
[22] = tested on: NCI-H2228; test: Induction of cell cycle arrest in human NCI-H2228 cells assessed as accumulation of cells at S phase at 1.8 uM incubated for 48 hrs propidium iodide staining based flow cytometric analysis (reference value: 28.16%); assay type: functional
[23] = tested on: HCT-116; test: cells; conditions: Homo sapiens, HCT-116, 96 h
Description: Antiproliferative activity against ALK-negative human HCT-116 cells assessed as inhibition of cell growth incubated for 96 hrs by MTT assay

[24] = tested on: NCI-H2228; test: cells; conditions: Homo sapiens, NCI-H2228, 96 h
Description: Antiproliferative activity against EML4-ALK positive human NCI-H2228 cells assessed as inhibition of cell growth incubated for 96 hrs by MTT assay

[25] = tested on: NCI-H2228; test: Induction of cell cycle arrest in human NCI-H2228 cells assessed as accumulation of cells at S phase at 0.2 uM incubated for 48 hrs propidium iodide staining based flow cytometric analysis (reference value: 28.16%); assay type: functional

In the case of `Cc1cc(Nc2ncc(Cl)c(Nc3ccccc3S(=O)(=O)C(C)C)n2)c(OC(C)C)cc1C1CCN(C(=O)SCC(=S)N2CCS(=O)(=O)CC2)CC1`, the Activity [1] is reported as 8.06%, the Activity [2] is reported as 18.15% and the Activity [3] is reported as 59.11%. The Activity [4] was 6.37%, the IC50 [5] was > 10000 nM and the Activity [6] was 3.5%. The Activity [7] was 2.24%, the viability at 0.6 µM [8] was 84.4% and the viability at 0.2 µM [9] was 89.8%. The Activity [10] was 8.84%, the IC50 [11] was 70 nM and the Activity [12] was 59.7%. The Activity [13] was 5.7%, the Activity [14] was 27.35% and the Activity [15] was 15.59%. The Activity [16] was 3.65%, the Activity [17] was 4.04% and the Activity [18] was 4.31%. It also gave an Activity [19] of 22.74%, a viability at 1.8 µM [20] of 79.1% and an Activity [21] of 56.55%. For the same molecule, the Activity [22] was 16.1%, the IC50 [23] was 5530 nM and the IC50 [24] was 70 nM. For the same molecule, the Activity [25] was 24.71%.
